The values that follow come from ChEMBL document CHEMBL5137027, “Discovery of quinazoline derivatives CZw-124 as a pan-TRK inhibitor with potent anticancer effects in vitro and in vivo” (Eur J Med Chem, 2022).

Series [1] has as its target High affinity nerve growth factor receptor (Homo sapiens, UniProt P04629, G595R). The series is described as follows: Inhibition of TRKA G595R mutant (unknown origin).
In series [2] the test system is KM12. The series is described as follows: Antiproliferative activity against human KM12 cells assessed as inhibition of cell growth incubated for 72 hrs by CCK8 assay. Format: functional, cell-based. Conditions: KM12, 72 h. A general note: Formazan colour is commonly taken as a measure of viable cells.
For series [3], the system named is BaF3. The series is described as follows: Antiproliferative activity against mouse BaF3 cells harboring TRKA F589L mutant assessed as inhibition of cell growth incubated for 72 hrs by CCK8 assay. The series is classed as functional, cell-based. Conditions: BaF3, 72 h.
For series [4], the system named is BaF3. Put plainly: Antiproliferative activity against mouse BaF3 cells harboring TRKA G667C mutant assessed as inhibition of cell growth incubated for 72 hrs by CCK8 assay. Format: functional, cell-based. Conditions: BaF3, 72 h.
Series [5] has as its system BaF3. The series is described as follows: Antiproliferative activity against mouse BaF3 cells harboring TRKA G595R mutant assessed as inhibition of cell growth incubated for 72 hrs by CCK8 assay. The series is classed as functional, cell-based. Conditions: BaF3, 72 h.
A further series relates to MCF7. The series is described as follows: Antiproliferative activity against human MCF7 cells assessed as inhibition of cell growth incubated for 72 hrs by CCK8 assay. The series is classed as functional, cell-based. Conditions: MCF7, 72 h.
Series [6] deals with KM12. Put plainly: Antitumor activity against human KM12 cells xenografted in nude BALB/c mouse assessed as tumor growth inhibition at 40 mg/kg, po qd measured every 3 days for 14 days. The series is classed as functional. Conditions: KM12, 336 h, time 14 day, read-out: TGI. For orientation: In xenograft studies the graft and the host belong to different species.
The next series has as its system A549. Put plainly: Antiproliferative activity against human A549 cells assessed as inhibition of cell growth incubated for 72 hrs by CCK8 assay. Conditions: A549, 72 h. Format: functional, cell-based.
The nature of series [7]: Toxicity in nude BALB/c mouse xenografted with human KM12 cells assessed as changes in body weight at 40 mg/kg, po qd measured every 3 days for 14 days. Format: organism-based. Conditions: in vivo, 336 h, time 14 day.
The next series deals with THLE-2. The series is described as follows: Antiproliferative activity against human THLE-2 cells assessed as inhibition of cell growth incubated for 72 hrs by CCK8 assay. Conditions: THLE-2, 72 h. Format: functional, cell-based.
Series [8] concerns the target High affinity nerve growth factor receptor (Homo sapiens, UniProt P04629). Put plainly: Inhibition of […] human TRKA (436 to 790 residues) expressed in baculovirus expression system using TK as substrate measured after 30 mins in presence of ATP by HTRF assay. Background: Time-resolved FRET reads energy transfer from a long-lived donor to a nearby acceptor.

A short description of series [9]: Metabolic stability in human liver microsomes assessed as half life at 100 uM incubated for 60 mins under shaking condition in presence of NADPH by LC-MS/MS analysis. Format: ADME, Microsome.
A short description of series [10]: Metabolic stability in human liver microsomes assessed as compound remaining at 100 uM incubated for 60 mins under shaking condition in absence of NADPH by LC-MS/MS analysis. The series is classed as ADME, Microsome. Conditions: read-out: Stability.
The nature of series [11]: Metabolic stability in human liver microsomes assessed as compound remaining at 100 uM incubated for 60 mins under shaking condition in presence of NADPH by LC-MS/MS analysis. The series is classed as ADME, Microsome. Conditions: read-out: Stability.
Series [12] can be described thus: Metabolic stability in human microsomes assessed as intrinsic clearance at 100 uM incubated for 60 mins under shaking condition in presence of NADPH by LC-MS/MS analysis. The series is classed as ADME, Microsome. Conditions: read-out: CLH.

Bounds are passed on as bounds.

Chain of High affinity nerve growth factor receptor (Homo sapiens, UniProt P04629) (P04629 whole entry, the tested form may be a part): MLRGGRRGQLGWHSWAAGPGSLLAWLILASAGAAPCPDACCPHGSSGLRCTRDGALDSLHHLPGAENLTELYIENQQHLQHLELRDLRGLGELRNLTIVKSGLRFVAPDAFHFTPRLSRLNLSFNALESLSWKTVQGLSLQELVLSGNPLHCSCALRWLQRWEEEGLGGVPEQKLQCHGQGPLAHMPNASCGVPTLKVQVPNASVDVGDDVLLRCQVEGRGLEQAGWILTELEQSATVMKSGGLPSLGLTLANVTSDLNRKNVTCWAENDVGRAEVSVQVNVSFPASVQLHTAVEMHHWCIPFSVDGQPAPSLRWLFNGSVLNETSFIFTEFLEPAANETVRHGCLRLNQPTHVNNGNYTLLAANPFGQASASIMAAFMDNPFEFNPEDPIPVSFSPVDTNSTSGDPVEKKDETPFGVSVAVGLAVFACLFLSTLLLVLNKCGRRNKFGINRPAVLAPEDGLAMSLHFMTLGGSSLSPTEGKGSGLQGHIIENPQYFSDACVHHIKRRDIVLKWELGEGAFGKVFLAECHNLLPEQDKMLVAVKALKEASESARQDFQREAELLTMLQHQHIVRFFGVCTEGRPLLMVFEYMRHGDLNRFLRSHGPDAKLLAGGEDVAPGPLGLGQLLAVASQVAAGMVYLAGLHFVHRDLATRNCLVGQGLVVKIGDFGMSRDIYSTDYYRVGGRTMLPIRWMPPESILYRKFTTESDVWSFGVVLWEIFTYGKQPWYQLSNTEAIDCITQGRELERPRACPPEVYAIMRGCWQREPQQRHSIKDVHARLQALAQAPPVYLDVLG
Chain of High affinity nerve growth factor receptor (Homo sapiens, UniProt P04629, G595R) (P04629 33-796 G595R limits assumed): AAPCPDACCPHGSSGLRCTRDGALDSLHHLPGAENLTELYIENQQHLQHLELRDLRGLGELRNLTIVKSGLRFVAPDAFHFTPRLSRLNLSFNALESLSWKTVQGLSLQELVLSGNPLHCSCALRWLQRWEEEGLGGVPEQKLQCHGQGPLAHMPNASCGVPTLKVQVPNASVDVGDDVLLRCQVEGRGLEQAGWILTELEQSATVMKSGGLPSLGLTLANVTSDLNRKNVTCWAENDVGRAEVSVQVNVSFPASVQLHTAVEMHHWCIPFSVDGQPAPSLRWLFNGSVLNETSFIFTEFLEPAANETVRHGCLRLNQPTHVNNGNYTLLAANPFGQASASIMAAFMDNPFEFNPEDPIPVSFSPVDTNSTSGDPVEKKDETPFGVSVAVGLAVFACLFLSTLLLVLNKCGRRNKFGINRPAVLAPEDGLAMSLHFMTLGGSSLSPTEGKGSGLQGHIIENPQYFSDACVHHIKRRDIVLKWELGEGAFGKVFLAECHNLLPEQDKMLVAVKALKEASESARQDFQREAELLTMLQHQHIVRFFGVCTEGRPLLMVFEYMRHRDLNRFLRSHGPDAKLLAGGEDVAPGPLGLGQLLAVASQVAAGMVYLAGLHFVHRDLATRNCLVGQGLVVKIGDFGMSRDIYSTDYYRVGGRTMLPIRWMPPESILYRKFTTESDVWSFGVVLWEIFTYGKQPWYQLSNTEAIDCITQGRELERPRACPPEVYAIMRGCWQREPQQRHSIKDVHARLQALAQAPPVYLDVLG

By IC50 is commonly meant the concentration at which inhibition is half-maximal. As to `Cc1cc(C(=O)NC(C)(C)C)cc(C#Cc2ccc3c4c(oc3c2)C(C)(C)c2cc(NS(C)(=O)=O)ccc2C4=O)n1`, the midpoint of inhibition in [1], the IC50, lay at 3000 nM.

Regarding `CC(C)Oc1cc(Nc2nc(N[C@@H](C)c3ccc(F)cn3)ncc2Cl)n[nH]1`, the IC50 in the series with KM12 [2] was found to be 21 nM; in the series on BaF3 [3], 20 nM; with BaF3 [4] it was 130 nM; with BaF3 [5], 59 nM.

In the case of `O=C(Nc1cnn2ccc(N3CCC[C@H]3c3cc(F)ccc3F)nc12)N1CC[C@@H](O)C1`, the IC50 was 7.1 nM with KM12 [2]; 260 nM with BaF3 [3]; 850 nM with BaF3 [4]; above 100000 nM in the series on MCF7; above 100000 nM in the series on A549; above 100000 nM in the series with THLE-2. Further, the half-maximal inhibitory concentration (IC50) in the series with BaF3 [5] was found to be 2200 nM. Further, the inhibition in vivo at 40 mg/kg with KM12 [6] was determined as 78%. Besides, the Activity result in [7] is listed as “Non-Toxic”.

On to `Fc1ccc(CNc2nc(Nc3cc(C4CC4)[nH]n3)c3ccc(Br)cc3n2)c(F)c1`, for which the IC50 in [8] is 150 nM.

For `Fc1ccc(CNc2nc(Nc3cc(-c4ccccc4)[nH]n3)c3ccccc3n2)c(F)c1`, the concentration for half-maximal inhibition (IC50) in series [8] is 68 nM.

Regarding `Cc1cc(Nc2nc(NCc3c(F)cccc3F)nc3ccccc23)n[nH]1`, the IC50 in series [8] is 160 nM.

Consider `Cc1cc(Nc2nc(NCc3ccc(Br)cc3)nc3ccccc23)n[nH]1`, for which the IC50 in series [8] turned out to be 180 nM.

For the compound `Cc1cc(Nc2nc(NCc3cc(F)ccc3F)nc3ccccc23)n[nH]1`, the 50% inhibitory concentration (IC50) in [8] was determined as 7.5 nM.

Usually half-life stands for the time needed for the level to fall by half in the phase considered. Turning to `Fc1ccc(CNc2nc(Nc3cc(C4CC4)[nH]n3)c3ccccc3n2)c(F)c1`, the half-life at 100 µM in series [9] was determined as 25.8 min. The 50% inhibitory concentration (IC50) in series [8] was determined as 4.7 nM. The remaining at 1 h, 100 µM is 104% in series [10] and 19.3% in series [11]. Further, the microsomal CLint at 100 µM in [12] was found to be 53.7 µL/min/mg.

In the case of `Cc1cc(Nc2nc(NCc3ccc(Cl)cc3)nc3ccccc23)n[nH]1`, the IC50 in series [8] came to 380 nM.

On to `Cc1cc(Nc2nc(NCc3ccc(F)cc3F)nc3cc(Cl)ccc23)n[nH]1`, for which the half-life at 100 µM in series [9] worked out at 31.9 min. Besides, the remaining at 1 h, 100 µM in series [10] was 99.5%; in [11] it was 28.1%. Moreover, the microsomal CLint at 100 µM in series [12] stood at 43.5 µL/min/mg.

Consider `Cc1cc(Nc2nc(N3CCOCC3)nc3ccc(Cl)cc23)n[nH]1`, for which, in series [8], the IC50 is 350 nM.

In the case of `Cc1ccc2c(Nc3cc(C)[nH]n3)nc(NCc3ccc(F)cc3F)nc2c1`, in series [9], the half-life at 100 µM was 25.5 min. For the same compound, the figures for the remaining at 1 h, 100 µM in series [10] and in series [11] were 98.1% and 20.2%, respectively. Also, in [12], the microsomal CLint at 100 µM was determined as 54.3 µL/min/mg.

For the compound `Cc1cc(Nc2nc(NCc3ccc(F)cc3)nc3ccccc23)n[nH]1`, the IC50 in series [8] was found to be 20 nM.

For `Cc1cc(Nc2nc(NCc3ccc(F)cc3F)nc3ccc(F)cc23)n[nH]1`, the IC50 in [8] is 44 nM.

`Cc1ccc(CNc2nc(Nc3cc(C)[nH]n3)c3ccccc3n2)cc1`: the concentration for half-maximal inhibition (IC50) in series [8] came out at 110 nM.

`Fc1ccc(CNc2nc(Nc3cc(C4CC4)[nH]n3)c3ccc(C(F)(F)F)cc3n2)c(F)c1`: the IC50 in the series with KM12 [2] was 28 nM; in the series on MCF7, 9100 nM; in series [8] it was 17 nM; in the series with A549 it was 19000 nM; with THLE-2, above 100000 nM; with BaF3 [5], 1100 nM.

Consider `Cc1cc(Nc2nc(NCc3ccc(F)cc3F)nc3cc(C(F)(F)F)ccc23)n[nH]1`, for which, in [9], the half-life at 100 µM worked out at 50.9 min. Besides, the IC50 in series [8] was 57 nM. Besides, the remaining at 1 h, 100 µM in [10] was found to be 98.3%; in [11], 43.4%. Moreover, the microsomal CLint at 100 µM in [12] turned out to be 27.2 µL/min/mg.

In the case of `Cc1cc(Nc2nc(NCc3ccc(C(F)(F)F)cc3)nc3ccccc23)n[nH]1`, the IC50 in series [8] was 1400 nM.

As for `C[C@@H]1CCc2ncc(F)cc2[C@H]2CCCN2c2ccn3ncc(c3n2)C(=O)N1` [SELITRECTINIB], the half-inhibitory concentration (IC50) with KM12 [2] was found to be 2.8 nM; in the series with BaF3 [3] it was 8.2 nM; in the series on BaF3 [5] it was 18 nM.
